Results on three compounds are retold here after ChEMBL document CHEMBL5055644, “Cysteine derivatives as acetyl lysine mimics to inhibit zinc-dependent histone deacetylases for treating cancer” (Eur J Med Chem, 2021).

Molecules are shown by their SMILES. Active and inactive are the calls of the source. The rule behind the calls is not given here.

The target of experiment [1] is Class 1 histone deacetylase (Homo sapiens) (UniProt Q13547+O15379+Q92769+Q9BY41). Put plainly: Inhibition of class 1 HDAC in human MCF7 cells assessed as increase in histone H3 acetylation at 10 uM measured after 8 hrs by Western blot analysis. It is filed as cell-based. Background: Immunoblotting shows a protein as a band on a membrane.
For experiment [2], the target named is Histone deacetylase. Put plainly: Inhibition of HDAC in human HeLa nuclear extract using Boc-Lys(acetyl)-AMC as fluorogenic substrate measured after 1 hr by flourescence plate reader method. The experiment is classed as subcellular, Nucleus.
Experiment [3] deals with HeLa. Put plainly: cells. Conditions: Homo sapiens, time 48 hrs. It is filed as functional.
Description: Antiproliferative activity against human HeLa cells assessed as inhibition of cell proliferation incubated for 48 hrs by CCK8 assay
Experiment [4] concerns the target Histone deacetylase (Homo sapiens) (UniProt Q13547+O15379+Q9UBN7+Q92769+Q9UQL6+Q8WUI4+Q9BY41+Q96DB2+P56524+Q9UKV0+Q969S8). Put plainly: Inhibition of HDAC in human HeLa nuclear extract at 1 uM using Boc-Lys(acetyl)-AMC as fluorogenic substrate measured after 1 hr by flourescence plate reader method relative to control. Conditions: Nucleus. It is filed as subcellular.

Experiment [5] has as its target T1, Protein deacetylase HDAC6 (Homo sapiens) (UniProt Q9UBN7).
T1 sequence (whole entry): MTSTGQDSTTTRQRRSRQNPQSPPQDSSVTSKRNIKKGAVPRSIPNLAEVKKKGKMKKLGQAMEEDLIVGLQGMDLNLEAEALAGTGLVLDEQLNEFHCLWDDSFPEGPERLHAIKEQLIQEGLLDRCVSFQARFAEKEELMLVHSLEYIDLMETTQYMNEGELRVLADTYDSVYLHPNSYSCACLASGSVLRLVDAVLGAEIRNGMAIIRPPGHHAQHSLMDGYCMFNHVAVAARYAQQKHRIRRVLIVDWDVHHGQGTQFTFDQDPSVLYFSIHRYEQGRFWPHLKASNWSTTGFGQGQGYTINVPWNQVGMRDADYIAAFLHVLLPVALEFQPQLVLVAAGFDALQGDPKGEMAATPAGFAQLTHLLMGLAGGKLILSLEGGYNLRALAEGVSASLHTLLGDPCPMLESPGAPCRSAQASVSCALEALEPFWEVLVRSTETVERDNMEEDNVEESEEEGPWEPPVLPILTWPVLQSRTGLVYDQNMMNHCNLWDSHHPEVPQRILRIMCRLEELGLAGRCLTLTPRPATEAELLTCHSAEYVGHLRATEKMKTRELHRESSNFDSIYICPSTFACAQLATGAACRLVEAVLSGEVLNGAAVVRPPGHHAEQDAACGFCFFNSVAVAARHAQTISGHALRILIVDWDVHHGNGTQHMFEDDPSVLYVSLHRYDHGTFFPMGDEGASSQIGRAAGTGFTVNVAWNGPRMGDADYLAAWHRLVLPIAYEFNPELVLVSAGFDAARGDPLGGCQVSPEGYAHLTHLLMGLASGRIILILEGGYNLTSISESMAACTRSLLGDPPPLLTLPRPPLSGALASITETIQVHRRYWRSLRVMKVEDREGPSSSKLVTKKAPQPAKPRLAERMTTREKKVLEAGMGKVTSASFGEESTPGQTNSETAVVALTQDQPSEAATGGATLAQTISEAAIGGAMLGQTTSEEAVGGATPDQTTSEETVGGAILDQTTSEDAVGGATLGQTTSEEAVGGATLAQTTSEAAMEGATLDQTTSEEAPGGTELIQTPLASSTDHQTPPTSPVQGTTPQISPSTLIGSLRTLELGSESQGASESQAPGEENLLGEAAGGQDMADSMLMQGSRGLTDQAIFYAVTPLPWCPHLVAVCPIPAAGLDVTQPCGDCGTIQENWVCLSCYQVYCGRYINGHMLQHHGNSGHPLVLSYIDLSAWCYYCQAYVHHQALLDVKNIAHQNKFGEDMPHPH
Put plainly: Inhibition of HDAC6 in human K562 cells assessed as increase in alpha tubulin acetylation at 10 uM measured after 8 hrs by Western blot analysis. The experiment is classed as cell-based.

Experiment [6] addresses Histone deacetylase 4 (Homo sapiens, UniProt P56524). Put plainly: Inhibition of human HDAC4 using Boc-Lys(acetyl)-AMC as fluorogenic substrate measured after 1 hr by flourescence plate reader method.
Experiment [7] addresses Histone deacetylase 2 (Homo sapiens, UniProt Q92769). Put plainly: Inhibition of full length human HDAC2 using Boc-Lys(acetyl)-AMC as fluorogenic substrate measured after 1 hr by flourescence plate reader method.
Experiment [8] addresses Histone deacetylase 3/Nuclear receptor corepressor 2 (HDAC3/NCoR2) (Homo sapiens, UniProt O15379). Put plainly: Inhibition of C-terminal His-tagged recombinant human HDAC3 (1 to 428 residues)/N-terminal GST-tagged recombinant human NCoR2 (395 to 489 residues) co-expressed in baculovirus infected Sf9 cells using Boc-Lys(acetyl)-AMC as fluorogenic substrate measured after 1 hr by flourescence plate reader method.

The target of experiment [9] is Histone deacetylase 1 (Homo sapiens, UniProt Q13547). Put plainly: Inhibition of HDAC1 (unknown origin) using Boc-Lys(acetyl)-AMC as fluorogenic substrate measured after 1 hr by flourescence plate reader method.
Sequence of Histone deacetylase 1 (Q13547 whole entry, the tested form may be a part): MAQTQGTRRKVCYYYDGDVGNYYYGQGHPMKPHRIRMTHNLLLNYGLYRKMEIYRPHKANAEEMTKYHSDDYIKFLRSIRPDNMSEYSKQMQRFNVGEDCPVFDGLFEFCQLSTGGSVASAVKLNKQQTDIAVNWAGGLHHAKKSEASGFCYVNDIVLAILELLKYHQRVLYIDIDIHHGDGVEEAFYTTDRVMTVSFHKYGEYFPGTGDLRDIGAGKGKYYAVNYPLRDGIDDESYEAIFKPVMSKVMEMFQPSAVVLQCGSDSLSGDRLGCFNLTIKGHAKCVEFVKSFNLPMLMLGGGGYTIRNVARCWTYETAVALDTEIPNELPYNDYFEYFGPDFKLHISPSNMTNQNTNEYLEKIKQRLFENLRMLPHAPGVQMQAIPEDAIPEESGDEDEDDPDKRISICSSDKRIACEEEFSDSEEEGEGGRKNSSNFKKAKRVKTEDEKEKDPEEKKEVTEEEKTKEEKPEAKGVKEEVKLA
Experiment [10] deals with Histone deacetylase 9 (Homo sapiens, UniProt Q9UKV0). Put plainly: Inhibition of human C-terminal His-tagged HDAC9 (604 to 1066 residues) expressed in baculovirus infected Sf9 insect cells using Boc-Lys(acetyl)-AMC as fluorogenic substrate measured after 1 hr by flourescence plate reader method.
Sequence of Histone deacetylase 9 (Q9UKV0 whole entry, the tested form may be a part): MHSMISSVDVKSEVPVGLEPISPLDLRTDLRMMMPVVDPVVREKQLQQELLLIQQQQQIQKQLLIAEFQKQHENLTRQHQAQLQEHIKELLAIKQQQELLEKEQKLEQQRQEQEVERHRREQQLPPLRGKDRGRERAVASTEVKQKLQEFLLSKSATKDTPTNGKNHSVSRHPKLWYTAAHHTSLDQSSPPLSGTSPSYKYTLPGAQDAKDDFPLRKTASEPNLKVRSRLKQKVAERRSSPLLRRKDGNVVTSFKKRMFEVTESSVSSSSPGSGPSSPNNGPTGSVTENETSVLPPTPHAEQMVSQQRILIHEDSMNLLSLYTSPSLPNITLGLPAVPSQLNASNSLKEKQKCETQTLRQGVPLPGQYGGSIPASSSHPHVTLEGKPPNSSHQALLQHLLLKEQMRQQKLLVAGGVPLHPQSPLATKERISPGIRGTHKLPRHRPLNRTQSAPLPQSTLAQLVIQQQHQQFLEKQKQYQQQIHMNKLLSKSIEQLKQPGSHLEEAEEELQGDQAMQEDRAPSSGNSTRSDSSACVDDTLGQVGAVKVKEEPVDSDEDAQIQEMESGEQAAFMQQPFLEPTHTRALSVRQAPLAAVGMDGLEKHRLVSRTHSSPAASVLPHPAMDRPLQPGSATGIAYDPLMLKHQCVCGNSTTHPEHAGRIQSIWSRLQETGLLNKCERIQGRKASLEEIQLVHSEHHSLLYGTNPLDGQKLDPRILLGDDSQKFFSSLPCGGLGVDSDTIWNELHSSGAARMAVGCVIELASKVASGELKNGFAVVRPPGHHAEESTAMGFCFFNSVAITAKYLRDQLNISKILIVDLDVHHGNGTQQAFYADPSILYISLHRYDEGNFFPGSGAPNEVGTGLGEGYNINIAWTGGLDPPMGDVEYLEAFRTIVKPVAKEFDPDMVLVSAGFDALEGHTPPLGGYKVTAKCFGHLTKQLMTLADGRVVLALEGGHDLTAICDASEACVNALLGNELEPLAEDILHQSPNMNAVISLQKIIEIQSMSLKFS

Sequence of Histone deacetylase 2 (Q92769 whole entry, the tested form may be a part): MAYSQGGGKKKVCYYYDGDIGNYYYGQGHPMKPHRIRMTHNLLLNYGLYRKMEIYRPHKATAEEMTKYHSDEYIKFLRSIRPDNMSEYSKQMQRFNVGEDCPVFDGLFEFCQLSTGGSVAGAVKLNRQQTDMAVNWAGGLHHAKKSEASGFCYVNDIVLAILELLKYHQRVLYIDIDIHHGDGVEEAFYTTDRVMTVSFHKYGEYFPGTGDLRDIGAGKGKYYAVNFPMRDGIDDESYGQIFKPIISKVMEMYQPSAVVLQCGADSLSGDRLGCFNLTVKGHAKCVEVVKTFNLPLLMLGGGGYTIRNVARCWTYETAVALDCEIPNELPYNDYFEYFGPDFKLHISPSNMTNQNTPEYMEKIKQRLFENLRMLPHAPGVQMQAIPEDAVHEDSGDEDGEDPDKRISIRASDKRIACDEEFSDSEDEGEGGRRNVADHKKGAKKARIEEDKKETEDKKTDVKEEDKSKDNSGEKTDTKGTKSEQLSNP
Sequence of Histone deacetylase 3/Nuclear receptor corepressor 2 (HDAC3/NCoR2) (O15379 whole entry, the tested form may be a part): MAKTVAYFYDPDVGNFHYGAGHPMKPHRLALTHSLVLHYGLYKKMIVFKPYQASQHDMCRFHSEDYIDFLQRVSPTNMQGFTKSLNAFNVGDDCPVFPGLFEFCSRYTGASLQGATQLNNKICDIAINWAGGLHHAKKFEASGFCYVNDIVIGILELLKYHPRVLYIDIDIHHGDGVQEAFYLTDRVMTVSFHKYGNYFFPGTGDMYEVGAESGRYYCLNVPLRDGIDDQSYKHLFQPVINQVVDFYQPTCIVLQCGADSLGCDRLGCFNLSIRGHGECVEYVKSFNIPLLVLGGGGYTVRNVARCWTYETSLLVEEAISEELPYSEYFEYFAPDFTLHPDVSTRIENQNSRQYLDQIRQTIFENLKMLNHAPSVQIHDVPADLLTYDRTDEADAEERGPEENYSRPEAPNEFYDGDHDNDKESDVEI
Sequence of Histone deacetylase 3/Nuclear receptor corepressor 2 (HDAC3/NCoR2) (Q9Y618 whole entry, further chain, the tested form may be a part): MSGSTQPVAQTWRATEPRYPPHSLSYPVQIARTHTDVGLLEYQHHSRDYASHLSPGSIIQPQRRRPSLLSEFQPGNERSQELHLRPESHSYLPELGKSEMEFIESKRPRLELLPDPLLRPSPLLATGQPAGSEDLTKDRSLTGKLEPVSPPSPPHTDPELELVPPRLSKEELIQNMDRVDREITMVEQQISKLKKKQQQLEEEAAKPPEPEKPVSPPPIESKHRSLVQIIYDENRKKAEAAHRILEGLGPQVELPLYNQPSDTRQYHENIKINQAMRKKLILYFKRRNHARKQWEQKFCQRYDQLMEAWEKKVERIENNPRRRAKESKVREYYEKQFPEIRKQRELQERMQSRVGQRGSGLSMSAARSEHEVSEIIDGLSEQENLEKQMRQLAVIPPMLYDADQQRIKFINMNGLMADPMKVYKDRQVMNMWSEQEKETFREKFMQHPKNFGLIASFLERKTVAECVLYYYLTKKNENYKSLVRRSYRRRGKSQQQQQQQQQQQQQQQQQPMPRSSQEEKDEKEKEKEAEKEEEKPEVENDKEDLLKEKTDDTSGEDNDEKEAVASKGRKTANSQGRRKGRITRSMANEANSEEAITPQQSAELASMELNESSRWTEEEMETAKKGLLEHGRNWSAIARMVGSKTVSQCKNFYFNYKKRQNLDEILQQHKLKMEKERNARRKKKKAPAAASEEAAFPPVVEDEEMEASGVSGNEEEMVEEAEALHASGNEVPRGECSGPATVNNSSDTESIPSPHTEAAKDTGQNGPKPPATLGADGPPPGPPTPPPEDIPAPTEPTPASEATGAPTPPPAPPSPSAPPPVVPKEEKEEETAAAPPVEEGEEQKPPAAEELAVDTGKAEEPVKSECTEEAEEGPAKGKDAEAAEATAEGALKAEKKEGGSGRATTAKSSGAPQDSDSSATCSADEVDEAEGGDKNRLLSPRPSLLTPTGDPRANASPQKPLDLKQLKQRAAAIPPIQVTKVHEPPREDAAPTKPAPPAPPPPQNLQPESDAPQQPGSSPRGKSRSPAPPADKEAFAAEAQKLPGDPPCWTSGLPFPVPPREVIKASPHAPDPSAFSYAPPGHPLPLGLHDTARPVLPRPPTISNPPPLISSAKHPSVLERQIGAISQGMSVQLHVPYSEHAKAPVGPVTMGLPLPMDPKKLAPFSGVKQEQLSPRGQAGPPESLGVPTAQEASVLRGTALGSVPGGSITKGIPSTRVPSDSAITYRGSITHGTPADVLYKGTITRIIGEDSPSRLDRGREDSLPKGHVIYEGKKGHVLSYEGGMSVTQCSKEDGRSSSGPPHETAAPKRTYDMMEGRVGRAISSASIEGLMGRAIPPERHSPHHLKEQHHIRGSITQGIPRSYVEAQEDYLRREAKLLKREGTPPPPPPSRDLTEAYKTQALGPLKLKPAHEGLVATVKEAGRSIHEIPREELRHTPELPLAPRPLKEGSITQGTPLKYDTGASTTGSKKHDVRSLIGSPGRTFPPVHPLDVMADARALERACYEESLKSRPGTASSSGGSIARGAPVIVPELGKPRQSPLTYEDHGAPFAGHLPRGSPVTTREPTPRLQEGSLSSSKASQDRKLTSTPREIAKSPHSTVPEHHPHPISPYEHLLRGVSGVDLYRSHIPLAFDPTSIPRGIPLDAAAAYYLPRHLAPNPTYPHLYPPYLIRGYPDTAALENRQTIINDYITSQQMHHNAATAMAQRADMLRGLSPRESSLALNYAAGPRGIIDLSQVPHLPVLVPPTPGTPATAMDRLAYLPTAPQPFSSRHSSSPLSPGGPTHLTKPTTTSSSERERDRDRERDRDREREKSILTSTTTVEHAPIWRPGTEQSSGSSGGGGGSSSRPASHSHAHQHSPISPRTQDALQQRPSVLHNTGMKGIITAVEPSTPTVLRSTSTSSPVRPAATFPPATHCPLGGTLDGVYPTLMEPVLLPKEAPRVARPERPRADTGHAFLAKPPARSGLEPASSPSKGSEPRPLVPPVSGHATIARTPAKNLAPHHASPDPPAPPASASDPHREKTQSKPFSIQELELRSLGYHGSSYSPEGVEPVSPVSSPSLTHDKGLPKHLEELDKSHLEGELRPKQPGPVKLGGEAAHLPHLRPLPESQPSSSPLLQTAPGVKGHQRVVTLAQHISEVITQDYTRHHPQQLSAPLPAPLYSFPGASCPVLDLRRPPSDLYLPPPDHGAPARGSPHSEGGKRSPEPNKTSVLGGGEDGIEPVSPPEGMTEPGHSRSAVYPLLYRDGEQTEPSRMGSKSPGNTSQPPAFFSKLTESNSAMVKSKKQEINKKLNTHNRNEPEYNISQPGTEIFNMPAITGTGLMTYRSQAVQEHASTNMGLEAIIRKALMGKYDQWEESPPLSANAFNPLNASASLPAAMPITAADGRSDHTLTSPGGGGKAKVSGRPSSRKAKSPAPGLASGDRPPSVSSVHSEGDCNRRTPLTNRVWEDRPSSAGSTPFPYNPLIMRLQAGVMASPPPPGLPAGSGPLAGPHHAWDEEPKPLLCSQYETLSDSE

Broadly, the inhibition is the drop in the measured response relative to a control, in per cent. The IC50 is the point on the concentration scale where inhibition reaches its midpoint. The GI50 is the concentration at which growth is held to half of that of the control. `O=C(CCCSC[C@H](NC(=O)OCc1ccccc1)C(=O)Nc1cccc2ccccc12)NO`: the inhibition entry in experiment [1] and in [5] was “Active” each time. Further, the IC50 in experiment [2] was 72.4 nM; in experiment [6], more than 200 nM; in experiment [7] it was more than 200 nM; in experiment [8], 69.3 nM; in experiment [9], 150 nM; in experiment [10], more than 200 nM. Also, the GI50 in experiment [3] was determined as 4300 nM. In addition, the inhibition in experiment [4] is 83%.
For `O=C(CCCSC[C@H](NC(=O)OCc1ccccc1)C(=O)Nc1ccccc1)NO`, the inhibition result in experiment [1] and in [5] was “Active” in each case. Also, the IC50 in experiment [2] was 75.1 nM; in experiment [6], more than 200 nM; in experiment [7] it was more than 200 nM; in experiment [8], 108 nM; in [9] it was 172 nM; in experiment [10], more than 200 nM. In experiment [3], this compound had a GI50 of 3800 nM. The same compound returned an inhibition in [4] of 84%.
For the compound `O=C(CCCSC[C@H](NC(=O)c1ccccc1)C(=O)Nc1ccccc1)NO`, the inhibition entry in experiment [1] and in experiment [5] was “Active” in each case. In addition, the IC50 in [2] is 52.7 nM; in [6], more than 200 nM; in [7], more than 200 nM; in [8] it was 126 nM; in [9], 198 nM; in experiment [10], more than 200 nM. The compound also registered a GI50 in [3] of 4100 nM. In [4], the inhibition stood at 80%.
